The nature of test [1]: Alizarin red (ARS) assay, glucose binding affinity. Particulars: 20 mM phosphate buffer pH 7.4, room temperature. As to the method:
(§1) The alizarin-red binding assay is a colorimetric assay used to determine the inhibition affinity of boronate compounds to glucose. The assay is based on a colour shift of alizarin-red upon binding to boronate, which shift can be followed by change in absorbance in the 330-340 nm region.
(§2) After 5 minutes of centrifugation at 4000 rpm, the plate is placed in a multi-well spectrometer (SpectraMax, Molecular Devices) for absorption detection.
(§3) The analysis is carried out at room temperature with absorption readings at 330, 340 and 520 nm, respectively. Data obtained for absorption versus concentration of boronate is then fitted (Prism 7, GraphPad) with a sigmoidal function to obtain the Kd value of boronate and ARS.
(§4) Upon complete dissolution of the compound, 200 μM of Alizarin red (ARS) is added to the solution. The ARS-boronate solution is then aliquoted into a 96 multiwell plate (black, flat and clear bottom) 1:1 with appropriate carbohydrate. In particular, D-glucose and L-lactate solutions are prepared in a 20 mM phosphate buffer pH 7.4 at these concentrations respectively: 1000, 500, 250, 100, 50, 25, 10, 5, 2.5, 1, 0.25, 0.1 mM and 2500, 1000, 500, 100, 50, 10, 5, 1, 0.5, 0.1, 0.05, 0.01 mM. The plate with ARS-boronate mixed with carbohydrate is incubated 20 minutes at room temperature. After 5 minutes of centrifugation at 4000 rpm the plate is placed in a multiwell spectrometer (Spectra Max, Molecular Devices) for absorption detection.
(§5) The analysis is carried out at room temperature with absorption readings at 330, 340 and 520 nm, respectively.

The nature of test [2]: Alizarin red (ARS) assay, lactate binding affinity. The following applies: 20 mM phosphate buffer pH 7.4, room temperature, N.D. = not detectable. Here is the method:
as §1, §2, §3, §4, §5

Test [3] deals with human serum albumin (HSA) (Homo sapiens (Human), UniProt P02768). As to the kind of experiment: Fluorine (19F) NMR assay, glucose-sensitive albumin binding. Particulars: 0.1 mM compound, 1 mM HSA, 50 mM glucose, pH 7.4. As to the method: Diboron compound is dissolved at a 0.1 mM concentration in a 50 mM phosphate buffer pH 7.4, 10% deuterated water (D2O), and mixed with 0, 0.1, 0.2, 0.5, 1 and 2 mM human serum albumin (HSA). An additional sample with diboron compound in the presence of 1 mM HSA and 50 mM glucose is prepared.
Sequence of human serum albumin (HSA) (P02768 25-609): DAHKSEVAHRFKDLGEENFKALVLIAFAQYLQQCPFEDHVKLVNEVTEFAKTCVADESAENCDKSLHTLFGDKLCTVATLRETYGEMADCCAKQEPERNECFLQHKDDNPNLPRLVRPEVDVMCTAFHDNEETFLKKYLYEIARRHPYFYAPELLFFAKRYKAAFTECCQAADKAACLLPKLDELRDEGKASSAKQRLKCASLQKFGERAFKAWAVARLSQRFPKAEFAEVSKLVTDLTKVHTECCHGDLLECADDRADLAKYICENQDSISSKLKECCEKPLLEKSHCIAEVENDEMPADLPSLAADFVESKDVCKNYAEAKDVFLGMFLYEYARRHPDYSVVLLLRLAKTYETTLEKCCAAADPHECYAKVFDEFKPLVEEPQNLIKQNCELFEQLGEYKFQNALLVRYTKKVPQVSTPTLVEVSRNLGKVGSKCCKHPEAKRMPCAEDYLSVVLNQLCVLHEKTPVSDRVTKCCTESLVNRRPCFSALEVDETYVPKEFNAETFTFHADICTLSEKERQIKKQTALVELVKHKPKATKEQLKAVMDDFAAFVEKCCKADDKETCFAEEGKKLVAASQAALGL
The samples are then placed into 3 mm standard NMR tube (Bruker) and transferred for analysis to a 400 Mhz Bruker spectrometer equipped with a cryoprobe suitable for fluorine detection. The experiment is carried out with standard Bruker zgflqn pulse sequence at room temperature with enough scans to have a S/N ratio over 50 for the 0 mM HSA sample. The spectra are processed, visualized and compared by TopSpin program (Bruker).
The binding of diboron compound to HSA is qualitatively assessed by decrease of the fluorine signal of the diboron compound upon binding to HSA. Release of the diboron compound from HSA upon addition of glucose is assessed by reappearance/increase of fluorine signal in the spectra.

Test [4] can be described thus: Glucose affinity by 13C NMR assay. The following applies: 1 mM glucose and 1 mM boronate, pH 7.4, 10 mM phosphate buffer, read-out: Binding Affinity [Kd Glucose (mM)] measured by 13C-NMR. From the text: The ^13C Glucose assay is an NMR based assay that takes advantage of the slow chemical shift exchange between the unbound glucose (A state) and the glucose bound to diboronates (B state). If
In a slow exchange regime NMR signals from both states (A and B) are observed and reflect the distinct chemical shifts of the two states as there is not significant interconversion in the timescale of the NMR experiments. Therefore the intensity of each peak directly reports on the population of that state.
The dissociation constant (Kd) could be defined as Kd=([A][B])/[AB], given At as the total concentration of specie A and Bt as total concentration of specie B, in the case in which At−Bt, the product at the equilibrium AB is given by the following equation:
[formula] so that knowing At, Bt and AB at the equilibrium is possible to determine Kd. […]
The samples are then investigated with a standard Carbon HSQC in a Bruker NMR instrument (RT, 32 scans). The intensities of the peaks of free glucose and glucose bound to boronates are determined by the use of TOPSPIN program (Bruker). Difference between intensity of free glucose and glucose bound peaks gives the concentration of product AB at the equilibrium so that Kd can be calculated using equation 1.

Entries after “also recorded” stand apart in the source; their conditions may differ.

On to `NC(=O)CN(CCNC(=O)c1ccc(B(O)O)c(F)c1)C(=O)c1ccc(B(O)O)c(F)c1` [Example 3, N,N′-bis(4-borono-3-fluorobenzamido)-N-ethyl-glycine amide], for which the results for the dissociation constant Kd in test [1] and in test [2] were 2.7 mM and 16 mM, respectively. In addition, in test [3], the “Glucose-dependent binding to albumin (19F-NMR signal)” value (“Glucose-dependent binding to albumin” below) was “bind to albumin in a glucose-dependent manner; also recorded: glucose-sensitive albumin binding”.

Take `O=C(O)CNC(=O)c1cc(B(O)O)cc(C(=O)c2cc(F)cc(B(O)O)c2)c1` [Example 22, (3-Borono-5-(3-borono-5-fluorobenzoyl)benzoyl)glycine]: the Kd stood at 2 mM in test [1] and 20 mM in test [2]. In test [3], the “Glucose-dependent binding to albumin” value was “bind to albumin in a glucose-dependent manner”.

Turning to `O=C(O)CN(CCNC(=O)c1cc(Cl)c2c(c1)B(O)OC2)C(=O)c1cc(Cl)c2c(c1)B(O)OC2` [Example 32, N-(4-Chloro-1-hydroxy-1,3-dihydrobenzo[c][1,2]oxaborole-6-carbonyl)-N-(2-(4-chloro-1-hydroxy-1,3-dihydrobenzo[c][1,2]oxaborole-6-carboxamido)ethyl)glycine], the figures for the Kd in test [1] and in test [2] were 3.2 mM and 60.6 mM, respectively.

On to `O=C(O)CN=S(=O)(c1cc(B(O)O)cc(C(F)F)c1)c1cc(B(O)O)cc(C(F)F)c1` [Example 34, 2-((Bis(3-borono-5-(difluoromethyl)phenyl)(oxo)-λ6-sulfanylidene)amino)acetic acid], for which the figures for the Kd in test [1] and in test [2] were 2.1 mM and 24.9 mM, respectively.

`O=C(O)CN(CCNC(=O)c1cc2c(c(C(F)(F)F)c1)COB2O)C(=O)c1cc2c(c(C(F)(F)F)c1)COB2O` [Example 25, N-(1-Hydroxy-4-(trifluoromethyl)-1,3-dihydrobenzo[c][1,2]oxaborole-6-carbonyl)-N-(2-(1-hydroxy-4-(trifluoromethyl)-1,3-dihydrobenzo[c][1,2]oxaborole-6-carboxamido)ethyl)glycine]: the Kd in test [1] is 1.3 mM; in test [2], 11 mM. Besides, in test [3], the “Glucose-dependent binding to albumin” value is “bind to albumin in a glucose-dependent manner”.

For the compound `O=C(O)CN(CCNC(=O)c1cc2c(cc1C(F)(F)F)COB2O)C(=O)c1cc2c(cc1C(F)(F)F)COB2O` [Example 37, N-(1-Hydroxy-5-(trifluoromethyl)-1,3-dihydrobenzo[c][1,2]oxaborole-6-carbonyl)-N-(2-(1-hydroxy-5-(trifluoromethyl)-1,3-dihydrobenzo[c][1,2]oxaborole-6-carboxamido)ethyl)glycine], the equilibrium dissociation constant (Kd) in test [1] was 4.2 mM; in test [2], 13 mM.

Turning to `O=C(NC[C@H](NC(=O)c1cc2c(c(C(F)(F)F)c1)COB2O)C(=O)O)c1cc2c(c(C(F)(F)F)c1)COB2O` [Example 26, (S)-2,3-Bis(1-hydroxy-4-(trifluoromethyl)-1,3-dihydrobenzo[c][1,2]oxaborole-6-carboxamido)propanoic acid], the Kd was found to be 0.2 mM in test [1] and 10 mM in test [2]. Also, the “Glucose-dependent binding to albumin” value in test [3] is recorded as “bind to albumin in a glucose-dependent manner”.

Take `O=C(O)c1cc(B(O)O)c(F)c(S(=O)(=O)c2ccc(F)c(B(O)O)c2)c1` [Example 11, 3-Borono-5-((3-borono-4-fluorophenyl)sulfonyl)-4-fluorobenzoic acid]: the Kd was found to be 1.8 mM in test [1] and 17 mM in test [2].

With `O=C(O)CN(CCNC(=O)c1cc2c(c(C(F)F)c1)COB2O)C(=O)c1cc2c(c(C(F)F)c1)COB2O` [Example 31, N-(4-(Difluoromethyl)-1-hydroxy-1,3-dihydrobenzo[c][1,2]oxaborole-6-carbonyl)-N-(2-(4-(difluoromethyl)-1-hydroxy-1,3-dihydrobenzo[c][1,2]oxaborole-6-carboxamido)ethyl)glycine], the Kd in test [1] is 0.8 mM; in test [2], 100 mM.

Regarding `O=C(O)CNC(=O)c1cc(B(O)O)cc(S(=O)(=O)c2cccc(B(O)O)c2)c1` [Example 39, (3-Borono-5-((3-boronophenyl)sulfonyl)benzoyl)glycine], the Kd in test [1] came out at 2.4 mM; in test [2], 27 mM.

As to `O=C(O)CN(CCNC(=O)c1cc(F)c2c(c1)B(O)OC2)C(=O)c1cc(F)c2c(c1)B(O)OC2` [Example 8, N-(4-Fluoro-1-hydroxy-1,3-dihydrobenzo[c][1,2]oxaborole-6-carbonyl)-N-(2-(4-fluoro-1-hydroxy-1,3-dihydrobenzo[c][1,2]oxaborole-6-carboxamido)ethyl)glycine], the Kd in test [1] stood at 2.7 mM; in test [2] it was 34 mM.

`O=C(O)CNC(=O)c1cc(B(O)O)cc(S(=O)(=O)c2cc(B(O)O)cc(C(F)(F)F)c2)c1` [Example 20]: the Kd in test [1] was found to be 1.7 mM; in test [2], 31 mM.

With `O=C(O)c1cc(B(O)O)cc(C(=O)c2cc(B(O)O)c(F)cc2F)c1` [Example 13, 3-Borono-5-(5-borono-2,4-difluorobenzoyl)benzoic acid], the Kd in test [1] stood at 0.3 mM; in test [2], 4 mM.

As for `O=C(O)CN=S(=O)(c1cc(B(O)O)cc(C(F)(F)F)c1)c1cc(B(O)O)cc(C(F)(F)F)c1` [Example 30, 2-((Bis(3-borono-5-(trifluoromethyl)phenyl)(oxo)-λ6-sulfanylidene)amino)acetic acid], in test [4], the Kd is 0.06 mM.

What is called Kd is a measure of binding affinity in units of concentration.

The values above are taken from patent publication US11767332B2, “Glucose-sensitive albumin-binding derivatives” (Novo Nordisk A/S, priority 2017, dated 2023).
